Measurements reported in patent publication US9247740B2, “Isoxazoline derivatives as insecticidal compounds” (Syngenta Participations AG, priority 2011, dated 2016).

Key:
Type in all cases: in vivo
[1] = tested on: Spodoptera littoralis (Egyptian Cotton Leafworm); assay: Spodoptera littoralis leaf disc spray test; conditions: foliar, 72 h, 200 ppm spray on cotton leaf discs, mortality, feeding behavior, growth regulation 3 days after treatment
Description: This Example illustrates the insecticidal and acaricidal properties of compounds of formula (I). Tests were performed as follows:

[2] = tested on: Heliothis virescens (Tobacco Budworm); assay: Heliothis virescens egg test on artificial diet; conditions: 96 h, 200 ppm (concentration in well 18 ppm), eggs 0-24 h old on artificial diet, egg mortality, larval mortality, growth regulation after 4 days
Text: (§1) This Example illustrates the insecticidal and acaricidal properties of compounds of formula (I).

[3] = tested on: Plutella xylostella (Diamond Back Moth); assay: Plutella xylostella larval test on artificial diet; conditions: 144 h, 200 ppm (concentration in well 18 ppm), L2 larvae, larval mortality and growth regulation after 6 days
Text: as §1

[4] = tested on: Diabrotica balteata (Corn Root Worm); assay: Diabrotica balteata larval test on artificial diet; conditions: 120 h, 200 ppm (concentration in well 18 ppm), L2 larvae, larval mortality and growth regulation after 5 days
Text: as §1

[5] = tested on: Thrips tabaci (Onion Thrips); assay: Thrips tabaci leaf disc spray test; conditions: foliar, 168 h, 200 ppm spray on sunflower leaf discs, mixed ages, mortality after 7 days
Text: as §1

[6] = tested on: Tetranychus urticae (Two-Spotted Spider Mite); assay: Tetranychus urticae leaf disc spray test; conditions: foliar, 192 h, 200 ppm spray on bean leaf discs, mixed ages, egg, larval and adult mortality 8 days later
Text: as §1

Measured: pest or weed control at 200 ppm

Cc1cc(C2=NOC(c3cc(Cl)cc(Cl)c3)(C(F)(F)F)C2)ccc1C(=O)NCC1CSC1 (stereo not drawn) [Compound A130, 4-[5-(3,5-dichlorophenyl)-5-(trifluoromethyl)-4H-isoxazol-3-yl]-2-methyl-N-(thietan-3-ylmethyl)benzamide]
≥ 80%: all assays above

Cc1cc(C2=NOC(c3cc(Cl)cc(Cl)c3)(C(F)(F)F)C2)ccc1C(=O)NCC1CS(=O)(=O)C1 (stereo not drawn) [Compound A132, 4-[5-(3,5-dichlorophenyl)-5-(trifluoromethyl)-4H-isoxazol-3-yl]-2-methyl-N-(1.1-dioxo-thietan-3-ylmethyl)benzamide]
≥ 80%: all assays above

O=C(NC1CSC1)c1ccc(C2=NOC(c3cc(Cl)cc(Cl)c3)(C(F)(F)F)C2)cc1[N+](=O)[O-] (stereo not drawn) [Compound B56, 4-[5-(3,5-dichlorophenyl)-5-trifluoromethyl-4H-isoxazol-3-yl]-2-nitro-N-(thietan-3-yl)benzamide]
≥ 80%: all assays above

CCc1cc(C2=NOC(c3cc(Cl)cc(Cl)c3)(C(F)(F)F)C2)ccc1C(=O)NC1CSC1 (stereo not drawn) [Compound B69, 4-[5-(3,5-dichlorophenyl)-5-trifluoromethyl-4H-isoxazol-3-yl]-2-ethyl-N-(thietan-3-yl)benzamide]
≥ 80%: all assays above

Cc1cc(C2=NOC(c3cc(C(F)(F)F)n(C)c3)(C(F)(F)F)C2)ccc1C(=O)NC1CSC1 (stereo not drawn) [Compound C006, 2-methyl-4-[5-[1-methyl-5-(trifluoromethyl)pyrrol-3-yl]-5-(trifluoromethyl)-4H-isoxazol-3-yl]-N-(thietan-3-yl)benzamide]
not listed: [2]
≥ 80%: all other assays above

Cc1cc(C2=NOC(c3cc(C(F)(F)F)n(CC(F)F)c3)(C(F)(F)F)C2)ccc1C(=O)NC1CSC1 (stereo not drawn) [Compound C007, 4-[5-[1-(2,2-difluoroethyl)-5-(trifluoromethyl)pyrrol-3-yl]-5-(trifluoromethyl)-4H-isoxazol-3-yl]-2-methyl-N-(thietan-3-yl)benzamide]
≥ 80%: all assays above

Cc1cc(C2=NOC(c3c[nH]c(C(F)(F)F)c3)(C(F)(F)F)C2)ccc1C(=O)NC1C[S+]([O-])C1 (stereo not drawn) [Compound C009, 2-methyl-N-(1-oxothietan-3-yl)-4-[5-(trifluoromethyl)-5-[5-(trifluoromethyl)-1H-pyrrol-3-yl]-4H-isoxazol-3-yl]benzamide]
≥ 80%: [3] | [5] | [6]

Cc1cc(C2=NOC(c3cc(Cl)cc(Cl)c3)(C(F)(F)F)C2)ccc1C(=O)N1CC2(CSC2)C1 (stereo not drawn) [Compound C013, [4-[5-(3,5-dichlorophenyl)-5-(trifluoromethyl)-4H-isoxazol-3-yl]-2-methyl-phenyl]-(6-thia-2-azaspiro[3.3]heptan-2-yl)methanone]
≥ 80%: [3] | [4] | [5] | [6]

O=C(N[C@H]1C[S@@+]([O-])C1)c1ccc(C2=NO[C@@](c3cc(Cl)cc(Cl)c3)(C(F)(F)F)C2)cc1Cl [Compound C15, 2-chloro-4-[(5S)-5-(3,5-dichlorophenyl)-5-(trifluoromethyl)-4H-isoxazol-3-yl]-N-(1-oxidothietan-1-ium-3-yl)benzamide]
≥ 80%: all assays above

Cc1cc(C2=NO[C@@](c3cc(Cl)cc(Cl)c3)(C(F)(F)F)C2)cnc1C(=O)N[C@H]1C[S@@+]([O-])C1 [Compound C16, 5-[(5S)-5-(3,5-dichlorophenyl)-5-(trifluoromethyl)-4H-isoxazol-3-yl]-3-methyl-N-(1-oxidothietan-1-ium-3-yl)pyridine-2-carboxamide]
≥ 80%: all assays above

Cc1cc(C2=NO[C@@](c3cc(Cl)c(Cl)c(Cl)c3)(C(F)(F)F)C2)ccc1C(=O)N[C@H]1C[S@@+]([O-])C1 [Compound C17, 2-methyl-N-(1-oxothietan-3-yl)-4-[(5S)-5-(3,4,5-trichlorophenyl)-5-(trifluoromethyl)-4H-isoxazol-3-yl]benzamide]
≥ 80%: all assays above

Cc1cc(C2=NO[C@@](c3cc(Cl)c(F)c(Cl)c3)(C(F)(F)F)C2)ccc1C(=O)NC1CS(=O)(=O)C1 [Compound C18, 4-[(5S)-5-(3,5-dichloro-4-fluoro-phenyl)-5-(trifluoromethyl)-4H-isoxazol-3-yl]-N-(1,1-dioxothietan-3-yl)-2-methyl-benzamide]
≥ 80%: all assays above

Cc1cc(C2=NO[C@@](c3cc(Cl)cc(Cl)c3)(C(F)(F)F)C2)ccc1C(=O)NCC1CS(=O)(=O)C1 [Compound C20, 4-[(5S)-5-(3,5-dichlorophenyl)-5-(trifluoromethyl)-4H-isoxazol-3-yl]-N-[(1,1-dioxothietan-3-yl)methyl]-2-methyl-benzamide]
≥ 80%: all assays above
